Experimental data published in ChEMBL document CHEMBL5120961, “N-Arylimidazoliums as Highly Selective Biomimetic Antimicrobial Agents” (J Med Chem, 2022).
≈ marks a conversion by molar mass, not a printed value. Calls of active or inactive are those of the source. The calls are words filed in the database; no cut-off is given here. Bridge positions count the residues as written; N and C are the ends. Square brackets hold non-standard residues; d marks the D form. Peptide text beside a SMILES is read from it. * marks the point of attachment. X1 = CC[C@H](C)CCCCC(=O)*; Dab = NCC[C@H](N)C(=O)O

Key:
Staphylococcus aureus [1] = assay: (§1) Antibacterial activity against methicillin-resistant Staphylococcus aureus ATCC 43300 infected in BALB/c mouse assessed as reduction in TNF-alpha content in lungs at 4 mg/kg, iv administered at 1, 6, 25 and 30 hrs post-infection and measured on day 7 post-infection by ELISA; format: functional, organism-based; details: time 7.0 day
Escherichia coli [2] = assay: Bactericidal activity against Escherichia coli ATCC 25922 assessed as eradication of bacterial colonies at 16XMIC measured after 30 mins time-kill kinetics analysis; format: functional, organism-based
Staphylococcus aureus [3] = assay: Antibacterial activity against methicillin-resistant Staphylococcus aureus ATCC 43300 assessed as inhibition of bacterial growth measured after 10 passages by broth microdilution method; format: functional, organism-based
Staphylococcus aureus [4] = assay: Inhibition of biofilm formation in methicillin-resistant Staphylococcus aureus ATCC 43300 at MIC incubated for 24 hrs under stationary conditions by crystal violet staining based analysis; format: functional
Staphylococcus aureus [5] = assay: Antibacterial activity against Staphylococcus aureus ATCC 25923 assessed as inhibition of bacterial growth incubated for 16 to 18 hrs by broth microdilution method; format: functional; details: time 16-18 hrs
[6] = Increase in intracellular ROS level in Staphylococcus aureus ATCC 25923 at 4XMIC measured after 10 mins by DCFH-DA staining based fluorescence analysis relative to control; format: functional
[7] = Half-life in Sprague-Dawley rat at 8 mg/kg, iv by LC-MS analysis; format: ADME, organism-based; details: in vivo
[8] = Acute toxicity in BALB/c mouse assessed as lethargy at >12 mg/kg, iv; format: organism-based; details: in vivo
Staphylococcus aureus [9] = assay: Antibacterial activity against methicillin-resistant Staphylococcus aureus ATCC 43300 infected in BALB/c mouse assessed as increase in animal's survival rate at 4 mg/kg, iv administered at 1, 6, 25 and 30 hrs post-infection and measured for 7 day post-infection; format: functional, organism-based
Staphylococcus aureus [10] = assay: as §1, with “of histopathological changes of pulmonary tissue” for “in TNF-alpha content in lungs”, “hematoxylin-eosin staining based analysis” for “ELISA”; format: functional, organism-based; details: time 7.0 day
[11] = Tmax in Sprague-Dawley rat at 8 mg/kg, iv by LC-MS analysis; format: ADME, organism-based; details: in vivo
Staphylococcus aureus [12] = assay: Disruption of established biofilm in methicillin-resistant Staphylococcus aureus ATCC 43300 assessed as reduction of relative biofilm mass incubated for 24 hrs by crystal violet staining based analysis; format: functional, organism-based; details: DDE = dose-dependent effect
Escherichia coli [13] = assay: Antibacterial activity against Escherichia coli ATCC 25922 assessed as inhibition of bacterial growth incubated for 16 to 18 hrs by broth microdilution method; format: functional; details: time 16-18 hrs
Staphylococcus aureus [14] = assay: Antibacterial activity against methicillin-resistant Staphylococcus aureus ATCC 43300 assessed as inhibition of bacterial growth incubated for 16 to 18 hrs by broth microdilution method; format: functional; details: time 16-18 hrs
[15] = Acute toxicity in BALB/c mouse assessed as animal's death at >12 mg/kg, iv; format: organism-based; details: in vivo
[16] = Acute toxicity in BALB/c mouse assessed as clonic convulsion at >12 mg/kg, iv; format: organism-based; details: in vivo
[17] = Mean clearance rate, Clz in Sprague-Dawley rat at 8 mg/kg, iv by LC-MS analysis; format: ADME, organism-based; details: in vivo
Erythrocyte = assay: Hemolytic activity in rabbit erythrocytes incubated for 1 hr; format: toxicity, cell-based, Oryctolagus cuniculus
Staphylococcus aureus [18] = assay: Disruption of established biofilm in methicillin-resistant Staphylococcus aureus ATCC 43300 assessed as reduction of relative biofilm mass at 64XMIC incubated for 24 hrs by crystal violet staining based analysis; format: functional
Staphylococcus aureus [19] = assay: Antibacterial activity against methicillin-resistant Staphylococcus aureus ATCC 43300 infected in BALB/c mouse assessed as increase in IL-10 content in lungs at 4 mg/kg, iv administered at 1, 6, 25 and 30 hrs post-infection and measured on day 7 post-infection by ELISA; format: functional, organism-based; details: time 7.0 day
[20] = Acute toxicity in BALB/c mouse assessed as ruffled fur at >12 mg/kg, iv; format: organism-based; details: in vivo
[21] = Subacute toxicity in BALB/c mouse assessed as histopathological changes of kidney at 4 to 8 mg/kg, iv administered for 7 days and measured on day 14 by hematoxyin-eosin staining based analysis; format: organism-based; details: in vivo, 336 h, dose 4-8 mg/kg, time 14 day
[22] = Increase in intracellular ROS level in Escherichia coli ATCC 25922 at 4XMIC measured after 10 mins by DCFH-DA staining based fluorescence analysis relative to control; format: functional
Staphylococcus aureus [23] = assay: Inhibition of biofilm formation in methicillin-resistant Staphylococcus aureus ATCC 43300 incubated for 24 hrs under stationary conditions by crystal violet staining based analysis; format: functional, organism-based
Staphylococcus aureus [24] = assay: Antibacterial activity against methicillin-resistant Staphylococcus aureus ATCC 43300 infected in BALB/c mouse assessed as reduction in MPO content in lungs at 4 mg/kg, iv administered at 1, 6, 25 and 30 hrs post-infection and measured on day 7 post-infection by ELISA; format: functional, organism-based; details: time 7.0 day
Klebsiella pneumoniae = assay: Antibacterial activity against Klebsiella pneumoniae CMCC(B) 46117 assessed as inhibition of bacterial growth incubated for 16 to 18 hrs by broth microdilution method; format: functional; details: time 16-18 hrs
[25] = Cytotoxicity against human HEK293 cells assessed as reduction of cell viability incubated for 48 hrs by MTT assay; format: toxicity, cell-based
[26] = Subacute toxicity in BALB/c mouse assessed as histopathological changes of liver at 4 to 8 mg/kg, iv administered for 7 days and measured on day 14 by hematoxyin-eosin staining based analysis; format: organism-based; details: in vivo, 336 h, dose 4-8 mg/kg, time 14 day
Staphylococcus aureus [27] = assay: Antibacterial activity against Staphylococcus aureus ATCC 25923 assessed as inhibition of bacterial growth incubated for 16 to 18 hrs in presence of ROS scavenger, NAC by broth microdilution method; format: functional; details: time 16-18 hrs
Acinetobacter baumannii = assay: Antibacterial activity against Acinetobacter baumannii ATCC 19606 assessed as inhibition of bacterial growth incubated for 16 to 18 hrs by broth microdilution method; format: functional; details: time 16-18 hrs
[28] = Acute toxicity in BALB/c mouse assessed as anorexia at >12 mg/kg, iv; format: organism-based; details: in vivo
[29] = Subacute toxicity in BALB/c mouse assessed as histopathological changes of heart at 4 to 8 mg/kg, iv administered for 7 days and measured on day 14 by hematoxyin-eosin staining based analysis; format: organism-based; details: in vivo, 336 h, dose 4-8 mg/kg, time 14 day
[30] = AUC (0 to infinity) in Sprague-Dawley rat at 8 mg/kg, iv by LC-MS analysis; format: ADME, organism-based; design: time infinity, dose 8 mg/kg, route iv; details: in vivo
[31] = MRT (0 to infinity) in Sprague-Dawley rat at 8 mg/kg, iv by LC-MS analysis; format: ADME, organism-based; details: in vivo
Pseudomonas aeruginosa = assay: Antibacterial activity against Pseudomonas aeruginosa ATCC 27853 assessed as inhibition of bacterial growth incubated for 16 to 18 hrs by broth microdilution method; format: functional; details: time 16-18 hrs
[32] = Subacute toxicity in BALB/c mouse assessed as animals abnormal behaviour at 4 to 8 mg/kg, iv administered everyday for 7 days; format: organism-based; details: in vivo, 168 h, dose 4-8 mg/kg, time 7 day
Staphylococcus aureus [33] = assay: Bactericidal activity against Staphylococcus aureus ATCC 25923 assessed as eradication of bacterial colonies at 4XMIC measured after 15 mins by time-kill kinetics analysis; format: functional, organism-based
[34] = Subacute toxicity in BALB/c mouse assessed as animal's death at 4 to 8 mg/kg, iv administered everyday for 7 days; format: organism-based; details: in vivo, 168 h, dose 4-8 mg/kg, time 7 day
Staphylococcus aureus [35] = assay: Antibacterial activity against methicillin-resistant Staphylococcus aureus ATCC 43300 infected in BALB/c mouse assessed as reduction of NF-kappaB p65 expression in lungs at 4 mg/kg, iv administered at 1, 6, 25 and 30 hrs post-infection and measured on day 7 post-infection by western blot analysis; format: functional, organism-based; details: time 7.0 day
[36] = Subacute toxicity in BALB/c mouse assessed as histopathological changes of spleen at 4 to 8 mg/kg, iv administered for 7 days and measured on day 14 by hematoxyin-eosin staining based analysis; format: organism-based; details: in vivo, 336 h, dose 4-8 mg/kg, time 14 day
Escherichia coli [37] = assay: Antibacterial activity against Escherichia coli ATCC 25922 assessed as inhibition of bacterial growth incubated for 16 to 18 hrs in presence of ROS scavenger, NAC by broth microdilution method; format: functional; details: time 16-18 hrs
[38] = Cmax in Sprague-Dawley rat at 8 mg/kg, iv by LC-MS analysis; format: ADME, organism-based; design: dose 8 mg/kg, route iv; details: in vivo
Staphylococcus aureus [39] = assay: Antibacterial activity against methicillin-resistant Staphylococcus aureus ATCC 43300 infected in BALB/c mouse assessed as reduction in bacterial burden in lungs at 4 mg/kg, iv administered at 1, 6, 25 and 30 hrs post-infection and measured on day 7 post-infection by colony forming unit assay; format: functional, organism-based; details: time 7.0 day
Enterococcus faecalis = assay: Antibacterial activity against Enterococcus faecalis ATCC 29212 assessed as inhibition of bacterial growth incubated for 16 to 18 hrs by broth microdilution method; format: functional; details: time 16-18 hrs
[40] = Selectivity ratio of HC5 for hemolytic activity in rabbit erythrocytes to MIC for antibacterial activity against methicillin-resistant Staphylococcus aureus ATCC 43300; format: toxicity, cell-based
[41] = Subacute toxicity in BALB/c mouse assessed as histopathological changes of lungs at 4 to 8 mg/kg, iv administered for 7 days and measured on day 14 by hematoxyin-eosin staining based analysis; format: organism-based; details: in vivo, 336 h, dose 4-8 mg/kg, time 14 day

CCCCCC[n+]1ccn(-c2ccc(C#Cc3ccc(-n4cc[n+](CCCCCC)c4)cc3)cc2)c1.[Br-].[Br-]
Activity (Staphylococcus aureus [1]): Active | Activity (Escherichia coli [2]): Active | Activity (Staphylococcus aureus [3]): Active | inhibition (INH) (Staphylococcus aureus [4]): 100% | MIC (Staphylococcus aureus [5]): 0.25 µg/mL | fold change (FC) [6]: 2 | half-life [7]: 51.4 min | Activity [8]: Non-Toxic | Activity (Staphylococcus aureus [9]): Active | Activity (Staphylococcus aureus [10]): Active | Tmax [11]: 4.98 min | Activity (Staphylococcus aureus [12]): Dde | MIC (Escherichia coli [13]): 1 µg/mL | MIC (Staphylococcus aureus [14]): 0.5 µg/mL | Activity [15]: Non-Toxic | Activity [16]: Non-Toxic | clearance [17]: 27.2 mL/min/kg | HC5 (Erythrocyte): 800 µg/mL | inhibition (INH) (Staphylococcus aureus [18]): 69% | Activity (Staphylococcus aureus [19]): Active | Activity [20]: Non-Toxic | Activity [21]: Non-Toxic | fold change (FC) [22]: 20 | inhibition (Staphylococcus aureus [23]): Active | Activity (Staphylococcus aureus [24]): Active | MIC (Klebsiella pneumoniae): 32 µg/mL | CC50 at 48 h [25]: 224 µg/mL | Activity [26]: Non-Toxic | MIC (Staphylococcus aureus [27]): 64 µg/mL | MIC (Acinetobacter baumannii): 32 µg/mL | Activity [28]: Non-Toxic | Activity [29]: Non-Toxic | AUC(0-inf) [30]: 5120 ng·h/mL | MRT inf [31]: 32.5 min | MIC (Pseudomonas aeruginosa): 32 µg/mL | Activity [32]: Non-Toxic | Activity (Staphylococcus aureus [33]): Active | Activity [34]: Non-Toxic | Activity (Staphylococcus aureus [35]): Active | Activity [36]: Non-Toxic | MIC (Escherichia coli [37]): 32 µg/mL | Cmax [38]: 12000 ng/mL | Activity (Staphylococcus aureus [39]): Active | MIC (Enterococcus faecalis): 8 µg/mL | selectivity ratio [40]: 1600 | Activity [41]: Non-Toxic

CC[C@H](C)CCCCC(=O)N[C@@H](CCN)C(=O)N[C@H](C(=O)N[C@@H](CCN)C(=O)N[C@H]1CCNC(=O)[C@H]([C@@H](C)O)NC(=O)[C@H](CCN)NC(=O)[C@H](CCN)NC(=O)[C@H](CC(C)C)NC(=O)[C@@H](Cc2ccccc2)NC(=O)[C@H](CCN)NC1=O)[C@@H](C)O (X1-[Dab]T[Dab][Dab][Dab][dF]L[Dab][Dab]T; lactam 4-C)
MIC (Escherichia coli [13]): 1 µg/mL (≈ 0.831 µM) | MIC (Klebsiella pneumoniae): 1 µg/mL (≈ 0.831 µM) | MIC (Acinetobacter baumannii): 1 µg/mL (≈ 0.831 µM) | MIC (Pseudomonas aeruginosa): 1 µg/mL (≈ 0.831 µM)

CCCCCCCC[n+]1ccn(-c2ccc(C#Cc3ccc(-n4cc[n+](CCCCCCCC)c4)cc3)cc2)c1.[Br-].[Br-]
MIC (Staphylococcus aureus [5]): 1 µg/mL | MIC (Escherichia coli [13]): 1 µg/mL | MIC (Staphylococcus aureus [14]): 1 µg/mL | HC5 (Erythrocyte): 200 µg/mL | selectivity ratio [40]: 200

C(#Cc1ccc(-n2ccnc2)cc1)c1ccc(-n2ccnc2)cc1
MIC (Staphylococcus aureus [5]): > 500 µg/mL | MIC (Escherichia coli [13]): > 500 µg/mL | MIC (Staphylococcus aureus [14]): > 500 µg/mL

C(#Cc1ccc(-n2cc[n+](Cc3ccccc3)c2)cc1)c1ccc(-n2cc[n+](Cc3ccccc3)c2)cc1.[Br-].[Br-]
MIC (Staphylococcus aureus [5]): 0.5 µg/mL | MIC (Escherichia coli [13]): 2 µg/mL | MIC (Staphylococcus aureus [14]): 1 µg/mL | HC5 (Erythrocyte): 200 µg/mL | selectivity ratio [40]: 200

CCCCCC[n+]1ccn(-c2ccc(CCc3ccc(-n4cc[n+](CCCCCC)c4)cc3)cc2)c1.[Br-].[Br-]
MIC (Staphylococcus aureus [5]): 0.5 µg/mL | MIC (Escherichia coli [13]): 4 µg/mL | MIC (Staphylococcus aureus [14]): 1 µg/mL | HC5 (Erythrocyte): 1000 µg/mL | selectivity ratio [40]: 1000
